Measurements published in PubChem BioAssay (NCI).
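Five concentrations, 48 hours, 96-well plates. GI50 = concentration required for 50% inhibition of growth. TGI: concentration producing complete growth inhibition.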

What was measured:
Test in all cases: NCI-60 cell line screen, 48 h
786-0 renal = system: 786-0 renal
A549 NSCLC = system: A549 NSCLC
ACHN renal = system: ACHN renal
BT-549 breast = system: BT-549 breast
CAKI-1 renal = system: CAKI-1 renal
CCRF-CEM leukemia = system: CCRF-CEM leukemia
COLO 205 colon = system: COLO 205 colon
DU-145 prostate = system: DU-145 prostate
EKVX NSCLC = system: EKVX NSCLC
HCC-2998 colon = system: HCC-2998 colon
HCT-116 colon = system: HCT-116 colon
HCT-15 colon = system: HCT-15 colon
HL-60(TB) leukemia = system: HL-60(TB) leukemia
HOP-62 NSCLC = system: HOP-62 NSCLC
HOP-92 NSCLC = system: HOP-92 NSCLC
HS 578T breast = system: HS 578T breast
HT29 colon = system: HT29 colon
IGROV1 ovarian = system: IGROV1 ovarian
K-562 leukemia = system: K-562 leukemia
KM12 colon = system: KM12 colon
LOX IMVI melanoma = system: LOX IMVI melanoma
M14 melanoma = system: M14 melanoma
MALME-3M melanoma = system: MALME-3M melanoma
MCF7 breast = system: MCF7 breast
MDA-MB-231 breast = system: MDA-MB-231 breast
MDA-MB-435 = system: MDA-MB-435
MOLT-4 leukemia = system: MOLT-4 leukemia
NCI-H23 lung = system: NCI-H23 lung
NCI-H460 lung = system: NCI-H460 lung
NCI-H522 lung = system: NCI-H522 lung
NCI/ADR-RES ovarian = system: NCI/ADR-RES ovarian
OVCAR-3 ovarian = system: OVCAR-3 ovarian
OVCAR-4 ovarian = system: OVCAR-4 ovarian
OVCAR-5 ovarian = system: OVCAR-5 ovarian
OVCAR-8 ovarian = system: OVCAR-8 ovarian
PC-3 prostate = system: PC-3 prostate
RPMI-8226 leukemia = system: RPMI-8226 leukemia
RXF 393 renal = system: RXF 393 renal
SF-268 CNS = system: SF-268 CNS
SF-295 CNS = system: SF-295 CNS
SF-539 CNS = system: SF-539 CNS
SK-MEL-2 melanoma = system: SK-MEL-2 melanoma
SK-MEL-28 melanoma = system: SK-MEL-28 melanoma
SK-MEL-5 melanoma = system: SK-MEL-5 melanoma
SK-OV-3 ovarian = system: SK-OV-3 ovarian
SN12C renal = system: SN12C renal
SNB-19 CNS = system: SNB-19 CNS
SNB-75 CNS = system: SNB-75 CNS
SR leukemia = system: SR leukemia
SW-620 colon = system: SW-620 colon
T-47D breast = system: T-47D breast
TK-10 renal = system: TK-10 renal
U251 CNS = system: U251 CNS
UACC-257 melanoma = system: UACC-257 melanoma
UACC-62 melanoma = system: UACC-62 melanoma
UO-31 renal = system: UO-31 renal

Work on `S=C(Nc1ccc(Cl)cc1)Nc1ccc(-c2nc3ccccc3o2)cc1` yielded a GI50 (786-0 renal) of 26.3 µM, a TGI (786-0 renal) of over 100 µM and a GI50 (A549 NSCLC) of 24.3 µM. The TGI (A549 NSCLC) was 92.6 µM, the GI50 (ACHN renal) was 17.3 µM and the TGI (ACHN renal) was 35.8 µM. For the same compound, the GI50 (BT-549 breast) was 22.2 µM, the TGI (BT-549 breast) was 60.7 µM and the GI50 (CAKI-1 renal) was 12.3 µM. The TGI (CAKI-1 renal) was 39.8 µM, the GI50 (CCRF-CEM leukemia) was 0.062 µM and the TGI (CCRF-CEM leukemia) was 19.3 µM. For the same compound, the GI50 (COLO 205 colon) was 19.9 µM, the TGI (COLO 205 colon) was over 100 µM and the GI50 (DU-145 prostate) was 17 µM. For the same compound, the TGI (DU-145 prostate) was 38.6 µM, the GI50 (EKVX NSCLC) was 19.4 µM and the TGI (EKVX NSCLC) was 64 µM. It also gave a GI50 (HCC-2998 colon) of 13.8 µM, a TGI (HCC-2998 colon) of 26.7 µM and a GI50 (HCT-116 colon) of 13.6 µM. For the same compound, the TGI (HCT-116 colon) was 26.4 µM, the GI50 (HCT-15 colon) was 10.9 µM and the TGI (HCT-15 colon) was 25.7 µM. The GI50 (HL-60(TB) leukemia) was 32.2 µM, the TGI (HL-60(TB) leukemia) was over 100 µM and the GI50 (HOP-62 NSCLC) was 26 µM. It also gave a TGI (HOP-62 NSCLC) of 57.4 µM, a GI50 (HOP-92 NSCLC) of 17.2 µM and a TGI (HOP-92 NSCLC) of 50.4 µM. It also gave a GI50 (HS 578T breast) of 21.2 µM, a TGI (HS 578T breast) of 79.2 µM and a GI50 (HT29 colon) of 17.4 µM. It also gave a TGI (HT29 colon) of 41.8 µM, a GI50 (IGROV1 ovarian) of 10.9 µM and a TGI (IGROV1 ovarian) of 37.4 µM. For the same compound, the GI50 (K-562 leukemia) was 22.6 µM, the TGI (K-562 leukemia) was over 100 µM and the GI50 (KM12 colon) was 15.8 µM. For the same compound, the TGI (KM12 colon) was 42.9 µM, the GI50 (LOX IMVI melanoma) was 11.7 µM and the TGI (LOX IMVI melanoma) was 26.3 µM. For the same compound, the GI50 (M14 melanoma) was 23.2 µM, the TGI (M14 melanoma) was 52.9 µM and the GI50 (MALME-3M melanoma) was 23.8 µM. For the same compound, the TGI (MALME-3M melanoma) was 59.9 µM, the GI50 (MCF7 breast) was 17.6 µM and the TGI (MCF7 breast) was 51.4 µM. It also gave a GI50 (MDA-MB-231 breast) of 10.3 µM, a TGI (MDA-MB-231 breast) of 35.1 µM and a GI50 (MDA-MB-435) of 18.5 µM. It also gave a TGI (MDA-MB-435) of 43.9 µM, a GI50 (MOLT-4 leukemia) of 18.5 µM and a TGI (MOLT-4 leukemia) of over 100 µM. For the same compound, the GI50 (NCI-H23 lung) was 17.7 µM, the TGI (NCI-H23 lung) was 41.8 µM and the GI50 (NCI-H460 lung) was 17.4 µM. The TGI (NCI-H460 lung) was 58.3 µM, the GI50 (NCI-H522 lung) was 11 µM and the TGI (NCI-H522 lung) was 26.7 µM. The GI50 (NCI/ADR-RES ovarian) was 21.8 µM, the TGI (NCI/ADR-RES ovarian) was 58.7 µM and the GI50 (OVCAR-3 ovarian) was 13.6 µM. For the same compound, the TGI (OVCAR-3 ovarian) was 44.7 µM, the GI50 (OVCAR-4 ovarian) was 25.1 µM and the TGI (OVCAR-4 ovarian) was over 100 µM. For the same compound, the GI50 (OVCAR-5 ovarian) was 20.4 µM, the TGI (OVCAR-5 ovarian) was 52.9 µM and the GI50 (OVCAR-8 ovarian) was 21 µM. For the same compound, the TGI (OVCAR-8 ovarian) was 49.7 µM, the GI50 (PC-3 prostate) was 15.4 µM and the TGI (PC-3 prostate) was 51.4 µM. The GI50 (RPMI-8226 leukemia) was 3.8 µM, the TGI (RPMI-8226 leukemia) was 23.2 µM and the GI50 (RXF 393 renal) was 10.9 µM. The TGI (RXF 393 renal) was 30.7 µM, the GI50 (SF-268 CNS) was 16.5 µM and the TGI (SF-268 CNS) was 76.7 µM. For the same compound, the GI50 (SF-295 CNS) was 13.7 µM, the TGI (SF-295 CNS) was 42.8 µM and the GI50 (SF-539 CNS) was 19.2 µM. For the same compound, the TGI (SF-539 CNS) was 41.8 µM, the GI50 (SK-MEL-2 melanoma) was 24.2 µM and the TGI (SK-MEL-2 melanoma) was 51.2 µM. It also gave a GI50 (SK-MEL-28 melanoma) of 20.6 µM, a TGI (SK-MEL-28 melanoma) of 43.2 µM and a GI50 (SK-MEL-5 melanoma) of 14 µM. For the same compound, the TGI (SK-MEL-5 melanoma) was 32.2 µM, the GI50 (SK-OV-3 ovarian) was 32.3 µM and the TGI (SK-OV-3 ovarian) was over 100 µM. The GI50 (SN12C renal) was 13.7 µM, the TGI (SN12C renal) was 28.8 µM and the GI50 (SNB-19 CNS) was 25.6 µM. The TGI (SNB-19 CNS) was over 100 µM, the GI50 (SNB-75 CNS) was 37.7 µM and the TGI (SNB-75 CNS) was 72.2 µM. It also gave a GI50 (SR leukemia) of 19 µM, a TGI (SR leukemia) of 52.3 µM and a GI50 (SW-620 colon) of 19.8 µM. It also gave a TGI (SW-620 colon) of 60.3 µM, a GI50 (T-47D breast) of 16.8 µM and a TGI (T-47D breast) of 82.8 µM. For the same compound, the GI50 (TK-10 renal) was 21.2 µM, the TGI (TK-10 renal) was 74.1 µM and the GI50 (U251 CNS) was 14.1 µM. The TGI (U251 CNS) was 29.7 µM, the GI50 (UACC-257 melanoma) was 21.4 µM and the TGI (UACC-257 melanoma) was 45.4 µM. The GI50 (UACC-62 melanoma) was 12.7 µM, the TGI (UACC-62 melanoma) was 27.7 µM and the GI50 (UO-31 renal) was 11.6 µM. For the same compound, the TGI (UO-31 renal) was 26.1 µM.
